The results in this text go back to US20030109523A1, “Bicyclic antagonists selective for the alphavbeta3 integrin” (Wyeth, priority 1999, published 2003).

Data set [1] concerns the target T1, Vitronectin Receptor (αVβ3) (Homo sapiens, UniProt P05106+P06756).
T1 construct: expressed in transfected cells; host or cells: 512P5 cells (plasma membrane preparation)
Put plainly: Vitronectin Receptor (αVβ3) Binding Test Procedure. The following applies: for IC50: read-out: (αVβ3) IC50 RECEPTOR BINDING.

Data set [2] has as its target T2, αVβ3 integrin (Homo sapiens, UniProt P05106+P06756).
T2 construct: αVβ3-expressing cell lines are maintained by standard tissue culture techniques; endogenous in cells; host or cells: αVβ3-expressing cell lines
Kind of data set: Osteopontin-αVβ3 Cell Attachment Test Procedure. The class given is cell-based. The following applies: for IC50: attachment of cells to osteopontin, read-out: (αVβ3) IC50 CELL ATTACHMENT
As for the experimental part: Osteopontin-αVβ3 Cell Attachment Test Procedure
Measuring the effect of compounds on the RGD-dependent attachment of cells to osteopontin mediated by the αVβ3 integrin.
Following incubation the wells were aspirated and washed once with D-PBS; plates can either be used immediately or stored for up to 1 week at 4° C. Prior to assay, the wells were blocked with 1% bovine serum albumin (BSA) in cell suspension media for 1 hour at 37° C. Following the blocking period, wells were aspirated and washed once with D-PBS.
αVβ3-expressing cell lines are maintained by standard tissue culture techniques. […] The cells were pelleted by low-speed centrifugation and washed three times with 0.5 mg/mL trypsin inhibitor in D-PBS (Sigma). The final cell pellet was resuspended in cell suspension media at a concentration of 10^6 cells/mL.
Incubation: 100 μL of diluted test compound was added to osteopontin-coated wells (in triplicate) followed by 100 μL of cell suspension; background cell attachment was determined in uncoated wells. The plate was incubated at 25° C. in a humidified air atmosphere for 1.5 hours. Following the incubation period, the wells were gently aspirated and washed once with D-PBS.
Cell Number Detection: The number of cells attached was determined by an MTT dye conversion assay (Promega) according to the manufacturer's instructions. Briefly, MTT dye was diluted in cell suspension media (15:85) and 100 μL was added to each well. […] The assay plates were covered and incubated at 37° C. in a humidified air atmosphere overnight.
The individual well optical density was expressed as a percentage of the maximal attachment (% Max) wells minus background attachment, and reported as the mean ±standard deviation.

Data set [3] relates to osteoclasts. Put plainly: Osteoclast Bone Pitting. The class given is cell-based, rat. As for the experimental part: Osteoclast Bone Pitting The test procedure was conducted as described by R. J. Murrills and D. W. […] At this pH the adherent osteoclasts excavate an adequate number of resorption pits for assay purposes. Slices were fixed in 2.5% glutaraldehyde and osteoclasts counted following tartrate-resistant acid phosphatase staining. […] All cells were stripped from the slice by sonication on 0.25M NH4OH and the resorption pits formed by the osteoclasts during the experiment stained with toluidine blue. Resorption pits were quantified by manually counting. The experiments were conducted according to a block design with osteoclasts from each animal exposed to each treatment. Three replicate slices were used per treatment per animal, such that a total of 96 slices were examined for an experiment involving four animals and eight treatments (including control). Several parameters were recorded on a “per slice” basis: number of pits, number of osteoclasts, number of pits per osteoclast, number of fibroblast-like bone cells. SAS or JMP statistical software were used for statistical analysis. […] IC50s were calculated using dose-response curves.

Data set [4] has as its target T3, αIIbβ3 integrin (Homo sapiens, UniProt P05106+P08514).
T3 construct: Human Platelets: Platelet-enriched plasma was obtained commercially from a donor pool; from tissue; host or cells: human platelet-rich plasma from a commercial donor pool
Put plainly: ADP-Induced Platelet Aggregation. Format: cell-based. The following applies: Table VII; for IC50: ADP 20 uM, human platelets, read-out: Platelet Aggregation αIIbβ3 IC50. On the procedure:
Measurement of the Effect of Compounds on ADP-Induced Platelet Aggregation
Measuring the effect of compounds on ADP-induced platelet aggregation mediated by a fibrinogen-αIIbβ3 integrin interaction.
Human Platelets: Platelet-enriched plasma was obtained commercially from a donor pool. The plasma was tested prior to shipment and found to be negative for HIV, HCV and Hepatitis B. Platelet-rich plasma (PRP) was obtained by diluting plasma to an approximate final concentration of 3×10(6) platelets per mL in platelet poor plasma (PPP). PPP was the supernatant of a lowspeed centrifugation of plasma.
Adenosine diphosphate (ADP): ADP was obtained commercially and diluted to 1 mM (stock solution) in distilled, deionized water (ddH2O).
Incubation: PRP and PPP were prewarmed in a water bath at 37° C. […] PRP plus sample compound in a final volume of 500 uL was added to a pre-warmed cuvette in a ChronoLog aggregometer. A control containing PRP and 5 uL of vehicle was treated similarly to the test cuvette; final vehicle concentration was 1%. The two cuvettes were incubated with stirring (1000 rpm) at 37° C. for 5 minutes. Five hundred microliters of PPP was used as a reference (100% aggregation).
Aggregation: To begin the test, ADP was added yielding a final concentration of 20 uM to both samples (plus and minus sample compound). Light transmittance was monitored continuously and compared to the reference cuvette. After five minutes, the test was terminated and the slope and maximal amplitude of the resulting aggregation plot was calculated by the aggregometer.
The percent of maximal aggregation is the ratio of the maximal aggregations of the sample cuvette to the control multiplied by 100 (% Max) and reported as the mean+−standard deviation.

The mark [5] stands for this setting: @ 30 μM, % Max = percentage of the specific binding, read-out: (αVβ3) RECEPTOR BINDING, % @ concentration.
The mark [6] stands for this setting: @ 100 μM, % of maximal attachment, read-out: (αVβ3) CELL ATTACHMENT, % @ concentration.
[7] abbreviates: @200 μM, percent of maximal aggregation.

Broadly, the melting point is the temperature, or range, at which the solid turns liquid. For orientation: IC50 means the concentration that gives 50% inhibition. Usually inhibition stands for the change of the read-out against control, counted positive when it falls.

SMILES strings stand for the structures. Counter-ions that a name gives are not always drawn. Like-named read-outs stand apart in the source and are kept apart here.

T3 sequence (P08514 32-887 limits assumed): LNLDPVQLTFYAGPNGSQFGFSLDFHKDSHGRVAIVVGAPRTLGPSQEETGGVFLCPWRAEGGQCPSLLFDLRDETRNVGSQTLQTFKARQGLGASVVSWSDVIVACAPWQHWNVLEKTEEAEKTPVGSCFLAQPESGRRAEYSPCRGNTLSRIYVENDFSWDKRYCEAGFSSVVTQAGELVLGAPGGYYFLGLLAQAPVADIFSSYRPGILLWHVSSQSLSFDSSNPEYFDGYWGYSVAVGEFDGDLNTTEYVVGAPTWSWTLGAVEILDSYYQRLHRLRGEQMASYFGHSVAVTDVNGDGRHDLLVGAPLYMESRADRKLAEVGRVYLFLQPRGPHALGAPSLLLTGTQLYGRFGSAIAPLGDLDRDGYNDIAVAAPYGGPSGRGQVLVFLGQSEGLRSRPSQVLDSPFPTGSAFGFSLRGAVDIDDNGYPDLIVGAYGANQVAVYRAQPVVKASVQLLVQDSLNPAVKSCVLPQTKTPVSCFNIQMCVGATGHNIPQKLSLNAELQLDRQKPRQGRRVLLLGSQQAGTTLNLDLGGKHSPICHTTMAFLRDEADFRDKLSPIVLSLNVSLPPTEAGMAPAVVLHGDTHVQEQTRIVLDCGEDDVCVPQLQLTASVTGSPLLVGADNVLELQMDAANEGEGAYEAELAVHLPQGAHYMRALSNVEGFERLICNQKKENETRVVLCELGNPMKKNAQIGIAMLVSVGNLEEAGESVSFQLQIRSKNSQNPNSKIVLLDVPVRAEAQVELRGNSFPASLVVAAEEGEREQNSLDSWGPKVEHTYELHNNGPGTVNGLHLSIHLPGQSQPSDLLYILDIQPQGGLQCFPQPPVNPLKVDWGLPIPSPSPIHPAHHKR
T3 sequence (P08514 891-1039 partner limits assumed): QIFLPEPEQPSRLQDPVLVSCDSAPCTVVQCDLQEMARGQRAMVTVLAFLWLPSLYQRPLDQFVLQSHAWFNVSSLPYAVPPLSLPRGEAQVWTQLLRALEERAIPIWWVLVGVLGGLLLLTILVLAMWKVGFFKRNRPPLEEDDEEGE
T3 sequence (P05106 27-788): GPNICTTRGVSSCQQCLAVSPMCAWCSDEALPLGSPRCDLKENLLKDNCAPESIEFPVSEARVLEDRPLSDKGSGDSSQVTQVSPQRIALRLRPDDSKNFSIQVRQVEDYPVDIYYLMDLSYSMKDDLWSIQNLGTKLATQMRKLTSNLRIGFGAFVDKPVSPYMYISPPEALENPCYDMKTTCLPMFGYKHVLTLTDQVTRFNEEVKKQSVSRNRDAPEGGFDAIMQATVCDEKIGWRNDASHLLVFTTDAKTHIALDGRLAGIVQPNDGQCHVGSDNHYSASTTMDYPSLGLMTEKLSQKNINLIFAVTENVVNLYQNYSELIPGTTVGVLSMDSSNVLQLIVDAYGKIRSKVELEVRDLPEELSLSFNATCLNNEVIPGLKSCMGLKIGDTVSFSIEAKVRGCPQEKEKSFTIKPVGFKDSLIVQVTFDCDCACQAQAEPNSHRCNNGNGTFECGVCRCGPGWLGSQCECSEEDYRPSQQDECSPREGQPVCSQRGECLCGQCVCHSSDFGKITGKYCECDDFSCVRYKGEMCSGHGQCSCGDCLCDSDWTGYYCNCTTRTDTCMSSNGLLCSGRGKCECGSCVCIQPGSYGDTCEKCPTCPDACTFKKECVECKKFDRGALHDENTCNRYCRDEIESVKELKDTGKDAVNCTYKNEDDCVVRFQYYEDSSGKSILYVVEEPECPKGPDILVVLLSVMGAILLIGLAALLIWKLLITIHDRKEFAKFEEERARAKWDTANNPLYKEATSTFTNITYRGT
T1 sequence (P06756 31-889 limits assumed): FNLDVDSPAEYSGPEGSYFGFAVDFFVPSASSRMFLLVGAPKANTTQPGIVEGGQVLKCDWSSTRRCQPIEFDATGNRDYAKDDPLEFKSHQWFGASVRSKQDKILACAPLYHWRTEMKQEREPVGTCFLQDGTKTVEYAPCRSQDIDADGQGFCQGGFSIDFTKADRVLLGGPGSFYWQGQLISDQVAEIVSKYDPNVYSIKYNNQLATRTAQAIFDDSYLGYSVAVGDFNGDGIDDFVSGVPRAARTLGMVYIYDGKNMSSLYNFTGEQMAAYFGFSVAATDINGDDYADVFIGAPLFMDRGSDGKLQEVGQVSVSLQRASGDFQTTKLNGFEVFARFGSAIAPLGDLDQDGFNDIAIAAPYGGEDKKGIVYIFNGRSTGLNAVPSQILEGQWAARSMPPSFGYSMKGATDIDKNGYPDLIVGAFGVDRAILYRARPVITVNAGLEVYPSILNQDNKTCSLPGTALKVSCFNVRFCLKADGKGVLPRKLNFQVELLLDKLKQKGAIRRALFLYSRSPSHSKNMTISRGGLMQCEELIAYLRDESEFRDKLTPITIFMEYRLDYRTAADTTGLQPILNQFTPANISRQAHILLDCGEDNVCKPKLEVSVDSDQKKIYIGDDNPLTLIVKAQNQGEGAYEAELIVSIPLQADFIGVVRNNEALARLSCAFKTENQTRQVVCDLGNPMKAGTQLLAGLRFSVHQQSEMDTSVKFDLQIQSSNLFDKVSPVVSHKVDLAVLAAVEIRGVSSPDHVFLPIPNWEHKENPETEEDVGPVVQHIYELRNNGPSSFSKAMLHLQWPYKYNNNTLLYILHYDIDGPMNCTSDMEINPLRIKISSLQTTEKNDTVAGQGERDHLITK
T1 sequence (P06756 891-1048 partner limits assumed): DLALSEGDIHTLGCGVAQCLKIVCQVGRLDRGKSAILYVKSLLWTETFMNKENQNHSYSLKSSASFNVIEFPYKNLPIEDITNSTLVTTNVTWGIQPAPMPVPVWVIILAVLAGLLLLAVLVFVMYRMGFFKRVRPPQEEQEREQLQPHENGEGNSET
T1 sequence (P05106 27-788): as the sequence (P05106 27-788) above
T2 sequence (P06756 31-889 limits assumed): as the sequence (P06756 31-889 limits assumed) above
T2 sequence (P06756 891-1048 partner limits assumed): as the sequence (P06756 891-1048 partner limits assumed) above
T2 sequence (P05106 27-788): as the sequence (P05106 27-788) above

For the molecule `CCn1c(=O)c(CC(=O)O)cc2ccc(OCCCN)cc21.O=C(O)C(F)(F)F`, the melting point lay in the range of 182 to 184 °C.
As to `NCCOc1ccc2c(c1)NC(=O)C(CC(=O)O)C2` (stereo not shown) [Example 204, [7-(2-Amino-ethoxy)-2-oxo-1,2,3,4-tetrahydro-quinolin-3-yl]-acetic Acid], the melting point fell in the range of 205 to 208 °C.
In the case of `N=C(N)NCCCC#Cc1ccc2c(c1)NC(=O)C(CC(=O)O)C2` (stereo not shown) [Example 101, [7-(5-Guanidino-pent-1-ynyl)-2-oxo-1,2,3,4-tetrahydro-quinolin-3-yl]-acetic Acid Trifluoroacetate], the IC50 stood at 8.9 µM in data set [1], 11.5 µM in data set [2] and 107 µM in data set [4]. For the same molecule, in data set [3] (Rattus norvegicus, Osteoclast, @ 221 μM), the inhibition at 221 µM was 51%.
Consider `N=C(N)NCCCCCOc1cccc2c1NC(=O)C(CC(=O)O)C2` (stereo not shown) [Example 250, [8-(5-Guanidino-pentoxy)-2-oxo-1,2,3,4-tetrahydro-quinolin-3-yl]-acetic Acid], for which the remaining activity at 30 µM in data set [1] (setting [5]) is 102%. The remaining activity at 10 µM in data set [2] (@ 10 μM, % of maximal attachment, read-out: (αVβ3) CELL ATTACHMENT, % @ concentration) came out at 90%. For the same molecule, in data set [2] (setting [6]), the remaining activity at 100 µM is 89%. The inhibition at 215 µM in data set [3] (Rattus norvegicus, Osteoclast) is -5%. In addition, the remaining activity at 200 µM in data set [4] (setting [7]) came out at 69%.
`COC(=O)CC1CCc2cc(OCCCNC3=NCCCN3)ccc2C1` (stereo not shown) [Example 215]: the IC50 in data set [1] turned out to be 2 µM; in data set [2] it was 37.4 µM; in data set [4], 151 µM. Moreover, in data set [3] (Rattus norvegicus, Osteoclast, @ 200 μM), the inhibition at 200 µM was 90%.
Regarding `N=C(N)NCCOc1ccc2cc(CC(=O)O)c(=O)[nH]c2c1` (as salt: trifluoroacetate) [Example 185, [7-(2-Guanidino-ethoxy)-2-oxo-1,2-dihydro-quinolin-3-yl]-acetic Acid], the melting point fell in the range of 219 to 220 °C.
On the same count and under the same terms, as for `NCCCOc1ccc2c(c1)NC(=O)C(CC(=O)O)C2` (stereo not shown) (as salt: salt) [Example 205, [7-(3-Amino-propoxy)-2-oxo-1,2,3,4-tetrahydro-quinolin-3-yl]-acetic Acid], the figure is 194 to 196 °C; as for `NCCCOc1ccc2cc(CC(=O)O)c(=O)n(Cc3ccccc3)c2c1` (as salt: salt) [Example 136, [1-Benzyl-7-(3-amino-propoxy)-2-oxo-1,2-dihydro-quinolin-3-yl]-acetic Acid], 126 to 128 °C.
Regarding `N=C(N)NCCCOc1ccc2c(c1)CC(CC(=O)O)C(=O)N2` (stereo not shown) [Example 228, [6-(3-Guanidino-propoxy)-2-oxo-1,2,3 4-tetrahydro-quinolin-3-yl]-acetic Acid], the “(αVβ3) RECEPTOR BINDING, % @ concentration” value in data set [1] (@ 30 μM, % Max = percentage of the specific binding) came out at 57%@ 30. Besides, in data set [2] (@ 100 μM, % of maximal attachment), the “(αVβ3) CELL ATTACHMENT, % @ concentration” value was 88%@ 100. For the same molecule, the “BONE PITTING INHIBITION” value in data set [3] (@ 230 μM) was determined as 7%@ 230. The “Percent of Maximal” value in data set [4] (setting [7]) is recorded as 83.7@200%.
Take `N=C(N)NCCOc1ccc2c(c1)CC(CCC(=O)O)C(=O)N2` (stereo not shown) (as salt: salt) [Example 222, 3-[6-(2-Guanidino-ethoxy)-2-oxo-1,2,3,4-tetrahydro-quinolin-3-yl]-propionic Acid]: the melting point lay in the range of 119 to 122 °C.
Turning to `N=C(N)NCCNC(=O)c1ccc2c(c1)NC(=O)C(CC(=O)O)C2` (stereo not shown) [Example 200, [7-(2-Guanidino-ethylcarbamoyl)-2-oxo-1,2,3,4-tetrahydro-quinolin-3-yl]-acetic Acid Hydrochloride], in data set [1] (@ 100 μM, % Max = percentage of the specific binding, read-out: (αVβ3) RECEPTOR BINDING, % @ concentration), the remaining activity at 100 µM is 31.4%. Also, the IC50 in data set [2] turned out to be 145 µM. Besides, the inhibition at 254 µM in data set [3] (Rattus norvegicus, Osteoclast, @ 254 μM) was 20%. Moreover, the remaining activity at 200 µM in data set [4] (setting [7]) came to 94%.
Consider `N=C(N)NCCCCOc1ccc2[nH]c(=O)c(CC(=O)O)cc2c1` [Example 238, [6-(4-Guanidino-butoxy)-2-oxo-1,2-dihydro-quinolin-3-yl]-acetic Acid Trifluoroacetic Acid Salt], for which, in data set [1] (setting [5]), the remaining activity at 30 µM is 100%. Also, in data set [2] (@ 20 μM, % of maximal attachment, read-out: (αVβ3) CELL ATTACHMENT, % @ concentration), the remaining activity at 20 µM was 102%. Besides, the remaining activity at 100 µM in data set [2] (setting [6]) stood at 97.9%. Moreover, the inhibition at 215 µM in data set [3] (Rattus norvegicus, Osteoclast) is -20%. For the same molecule, the remaining activity at 200 µM in data set [4] (setting [7]) was 94%.
For the molecule `O=C(O)CC1CCc2cc(OCCCNC3=NCCCN3)ccc2C1` (stereo not shown) [Example 214, {6-[3-(1,4,5,6-Tetrahydro-pyrimidin-2-ylamino)-propoxy]-1,2,3,4-tetrahydro-naphthalen-2-yl}-acetic Acid], the IC50 was 0.42 µM in data set [1] and 0.479 µM in data set [2]. Also, in data set [3] (Rattus norvegicus, Osteoclast, @ 19 μM), the inhibition at 19 µM is 19%. In addition, in data set [4] (setting [7]), the remaining activity at 200 µM is 58%.
With `N=C(N)NCCOc1ccc2c(c1)NC(=O)C(CC(=O)O)C2` (stereo not shown) [Example 85, [7-(2-Guanidino-ethoxy)-2-oxo-1,2,3,4-tetrahydro-quinolin-3-yl]-acetic Acid Hydrochloride], the IC50 in data set [1] was determined as 15.7 µM; in data set [2], 111 µM. The inhibition at 273 µM in data set [3] (Rattus norvegicus, Osteoclast, @ 273 μM) stood at 33%. Also, in data set [4] (setting [7]), the remaining activity at 200 µM was 93.3%.
For `N=C(N)NCCCOc1ccc2c(c1)CC(CC(=O)O)CC2.O=C(O)C(F)(F)F` (stereo not shown) [Example 40, [7-(3-Guanidino-propoxy)-1,2,3,4-tetrahydro-napthalen-2-yl]-acetic Acid Trifluoroacetate], in data set [1], the “(αVβ3) RECEPTOR BINDING, % @ concentration” value was 130% @30. The half-inhibitory concentration (IC50) in data set [2] was found to be 47 µM; in data set [4], 148 µM. Besides, the “BONE PITTING INHIBITION” value in data set [3] (@ 238 μM) is 39%@238.
Take `N=C(N)NCCCNC(=O)c1ccc2c(c1)NC(=O)C(CC(=O)O)C2` (stereo not shown) [Example 201, [7-(3-Guanidino-propylcarbamoyl)-2-oxo-1,2,3,4-tetrahydro-quinolin-3-yl]-acetic Acid Hydrochloride]: the half-maximal inhibitory concentration (IC50) in data set [1] came to 5.8 µM; in data set [2], 25.4 µM. Moreover, the inhibition at 256 µM in data set [3] (Rattus norvegicus, Osteoclast, @ 256 μM) was 45%. For the same molecule, in data set [4] (setting [7]), the remaining activity at 200 µM was 85%.
On to `N=C(N)NCCOc1ccc2c(c1)CCCC(CC(=O)O)C2` (stereo not shown) [Example 61, [2-(2-Guanidino-ethoxy)-6,7,8,9-tetrahydro-5H-benzocyclohepten-6-yl]-acetic Acid Hydrochloride], for which the IC50 in data set [1] is 1.7 µM; in data set [2], 62.2 µM. The inhibition at 271 µM in data set [3] (Rattus norvegicus, Osteoclast, @ 271 μM) stood at 32%. Also, the remaining activity at 200 µM in data set [4] (setting [7]) is 85.3%.
